Data as given in patent publication US20180290977A1, “KDM4 INHIBITORS” (Albert-Ludwigs-University Freiburg, priority 2017, published 2018).
Read-outs that look alike come from different tables or passages of the source.

Key:
[1] = biological target: T1, KDM4D (Homo sapiens, UniProt Q6B0I6); assay: KDM demethylase inhibition (IC50); type: biochemical
T1 sequence (Q6B0I6 1-523): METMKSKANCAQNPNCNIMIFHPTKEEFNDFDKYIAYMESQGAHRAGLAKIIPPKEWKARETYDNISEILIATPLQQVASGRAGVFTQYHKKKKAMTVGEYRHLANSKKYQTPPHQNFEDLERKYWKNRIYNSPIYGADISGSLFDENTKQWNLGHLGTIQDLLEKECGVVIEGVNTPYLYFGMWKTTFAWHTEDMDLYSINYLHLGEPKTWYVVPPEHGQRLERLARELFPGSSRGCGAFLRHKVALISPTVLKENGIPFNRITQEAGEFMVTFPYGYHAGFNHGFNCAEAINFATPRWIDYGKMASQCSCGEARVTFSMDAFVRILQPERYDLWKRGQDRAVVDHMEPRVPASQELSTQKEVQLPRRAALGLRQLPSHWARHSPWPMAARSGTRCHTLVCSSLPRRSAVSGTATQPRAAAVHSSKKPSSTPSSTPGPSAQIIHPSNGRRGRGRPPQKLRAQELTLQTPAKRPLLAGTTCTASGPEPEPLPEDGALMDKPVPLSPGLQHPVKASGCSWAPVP

[2] = biological target: T2, KDM4C (Homo sapiens, UniProt Q9H3R0); assay: KDM demethylase inhibition (IC50); type: biochemical
T2 sequence (Q9H3R0 1-1056): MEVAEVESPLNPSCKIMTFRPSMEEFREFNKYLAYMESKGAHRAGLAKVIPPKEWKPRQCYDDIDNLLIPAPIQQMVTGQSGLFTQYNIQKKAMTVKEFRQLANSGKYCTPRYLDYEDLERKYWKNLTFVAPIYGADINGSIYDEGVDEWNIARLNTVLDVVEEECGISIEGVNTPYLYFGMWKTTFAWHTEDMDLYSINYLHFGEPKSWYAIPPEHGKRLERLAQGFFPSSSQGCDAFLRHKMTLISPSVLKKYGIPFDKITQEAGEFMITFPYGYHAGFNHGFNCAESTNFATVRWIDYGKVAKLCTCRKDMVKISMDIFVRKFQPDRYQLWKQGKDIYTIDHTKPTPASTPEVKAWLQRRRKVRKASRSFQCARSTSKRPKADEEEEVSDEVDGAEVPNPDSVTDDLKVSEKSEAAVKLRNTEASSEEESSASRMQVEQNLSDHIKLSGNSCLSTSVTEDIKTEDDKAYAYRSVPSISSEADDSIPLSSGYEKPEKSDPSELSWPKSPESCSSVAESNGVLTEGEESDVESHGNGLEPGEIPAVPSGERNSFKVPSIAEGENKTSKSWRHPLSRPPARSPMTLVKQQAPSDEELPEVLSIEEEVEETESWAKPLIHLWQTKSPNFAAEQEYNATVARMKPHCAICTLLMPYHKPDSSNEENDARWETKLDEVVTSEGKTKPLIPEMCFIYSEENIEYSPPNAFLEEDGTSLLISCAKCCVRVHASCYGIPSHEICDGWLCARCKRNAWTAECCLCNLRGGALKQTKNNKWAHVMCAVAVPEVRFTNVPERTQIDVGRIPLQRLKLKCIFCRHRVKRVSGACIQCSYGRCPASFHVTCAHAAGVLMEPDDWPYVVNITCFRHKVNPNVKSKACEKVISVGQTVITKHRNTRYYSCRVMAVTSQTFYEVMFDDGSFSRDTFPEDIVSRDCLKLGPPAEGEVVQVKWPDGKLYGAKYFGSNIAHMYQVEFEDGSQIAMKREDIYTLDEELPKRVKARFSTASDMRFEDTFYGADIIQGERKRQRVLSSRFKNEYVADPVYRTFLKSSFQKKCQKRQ

[3] = read-out: IC50, demethylase activity

CN(c1ccccc1)c1ccc2c(c1)CCC[C@H]2CNc1cnccc1C(=O)O [Compound I, 3-({[(1R)-6-[methyl(phenyl)amino]-1,2,3,4-tetrahydronaphthalen-1-yl]methyl}amino)pyridine-4-carboxylic Acid]
IC50 ([1]; read-out: Compound I IC50): 0.104 µM
IC50 [1, 3]: < 0.105 µM
IC50 ([2]; read-out: Compound I IC50): 0.035 µM
IC50 [2, 3]: < 0.105 µM
